Common to all, as to type: functional, cell-based
In one test the test system is Caco-2. Nature of the test: Antiproliferative activity against human CaCo2 cells after 72 hrs by WST1 based assay. Conditions: Caco-2, 72 h. In general terms: Tetrazolium dyes change colour on reduction, which living cells bring about.
A further test deals with HCT-116. Nature of the test: Antiproliferative activity against human HCT116 cells after 72 hrs by WST1 based assay. Conditions: HCT-116, 72 h.
The test system of another test is Jurkat. Nature of the test: Antiproliferative activity against human Jurkat T cells after 72 hrs by WST1 based assay.
The test system of another test is HL-60. Nature of the test: Antiproliferative activity against human HL60 cells after 72 hrs by WST1 based assay. Conditions: HL-60, 72 h.
For a further test, the system named is MCF7. Nature of the test: Antiproliferative activity against human MCF7 cells after 72 hrs by WST1 based assay. Conditions: MCF7, 72 h.
The next test concerns U-937. Nature of the test: Antiproliferative activity against human U937 cells after 72 hrs by WST1 based assay. Conditions: U-937, 72 h.

For the compound `C=C1C(=O)O[C@@H]2C3O[C@]3(C)CC/C=C(\C)CC[C@@H]12` (stereo partly drawn), the half-maximal inhibitory concentration (IC50) came out at 10.4 µM in the test with Caco-2; 5.9 µM with HCT-116; 1.9 µM in the test on Jurkat; 0.9 µM in the test on HL-60; 9.4 µM in the test with MCF7; 2.2 µM in the test with U-937.
`CC(C)=CCCC(C)(O)[C@H]1CC(=O)C(CO)=C[C@@H]1O` (stereo partly drawn) [ANTHEMINONE A]: the IC50 with Caco-2 came to 11 µM; with HCT-116, 15 µM; in the test on Jurkat it was 9 µM; with HL-60, 7.6 µM; with MCF7 it was 21 µM; with U-937, 6.2 µM.
As for `C=C1C(=O)C[C@@H](C(C)(O)CCC=C(C)C)[C@H](O)[C@H]1O` (stereo partly drawn) [ANTHEMINONE C], the IC50 is 9.4 µM with Caco-2; 19 µM in the test on HCT-116; 8.4 µM in the test on Jurkat; 3.2 µM in the test with HL-60; 15 µM in the test with MCF7; 7.4 µM with U-937.

Usually IC50 stands for the concentration at which inhibition is half-maximal. A lower IC50 goes with higher potency.

The values are drawn from ChEMBL document CHEMBL1141520, “New cytotoxic saturated and unsaturated cyclohexanones from Anthemis maritima” (Bioorg Med Chem Lett, 2008).
